Measured values taken from article PMC3227451, “Structure-based development of novel sirtuin inhibitors” (Aging (Albany NY), 2011).

Legend:
[1] = molecular target: T1, Sirt2 (α-tubulin Lys40 deacetylation) (Homo sapiens, UniProt Q8IXJ6); test: Tubulin deacetylation assay in HEK cell lysates with added Sirt2; type: biochemical; conditions: 100 μM compound, 1 μg Sirt2
T1 construct: Human gene fragment comprising Sirt2 residues 34-356; His-tag with linker comprising a TEV protease cleavage site (N, cleaved yes); made in house; host or cells: E. coli Rosetta2; the protein was added to HEK 293T cell lysate
T1 sequence (Q8IXJ6 34-356): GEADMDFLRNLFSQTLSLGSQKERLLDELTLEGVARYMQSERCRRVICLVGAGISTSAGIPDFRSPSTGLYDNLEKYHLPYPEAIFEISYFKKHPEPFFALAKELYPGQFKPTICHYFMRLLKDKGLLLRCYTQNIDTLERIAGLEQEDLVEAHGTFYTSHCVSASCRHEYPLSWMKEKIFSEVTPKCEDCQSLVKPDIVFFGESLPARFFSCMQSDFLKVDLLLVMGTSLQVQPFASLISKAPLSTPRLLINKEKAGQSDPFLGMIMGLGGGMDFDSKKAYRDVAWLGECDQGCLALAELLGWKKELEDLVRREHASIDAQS
Procedure: Our novel compounds 3 and 4 are potent and specific Sirt2 inhibitors in vitro, and we next tested the effect of 4 (compound 3 is likely to be sensitive to esterase activity in lysates) on the Sirt2-dependent deacetylation of an in vivo substrate in a physiological environment. The acetylation levels of the Sirt2-deacetylation site Lys40 in α-tubulin [12] were analyzed in HEK cell lysates by using an acetyl-Lys40 specific antibody (Figure 4a). […] Thus, compound 4 is an inhibitor for the physiological α-tubulin deacetylation activity of Sirt2.
HEK 293T cells were grown in DMEM medium (PAN Biotech) supplemented with 10% fetal bovine serum (PAN Biotech) at 37°C and 5% CO2. Cells were harvested, washed with PBS, and resuspended and lysed using hypotonic buffer (10mM Tris-HCl, pH 8.0, 3mM KCl) supplemented with protease inhibitors cocktail. Cell debris was removed by centrifugation (10,000g, 10 minutes) at 4°C, and 50μl reaction were prepared with identical amounts of cell lysate and either 100 μM compound 4, 1 μg Sirt2, or both. All samples further contained the same amount of DMSO (to account for the solvent of the stock of 4) and 25 mM HEPES (pH 7.5; to compensate for the solvent of the NAD^+ stock). […]

HEK cells = test: Cytotoxicity testing on HEK cells
Sirt5 = molecular target: T2, Sirt5 (Homo sapiens, UniProt Q9NXA8); test: Fluor-de-Lys peptide deacetylation assay, Sirt5; type: biochemical
T2 construct: Sirt5 residues 34-302; His-tag with linker comprising a TEV protease cleavage site (N); made in house
T2 sequence (Q9NXA8 34-302): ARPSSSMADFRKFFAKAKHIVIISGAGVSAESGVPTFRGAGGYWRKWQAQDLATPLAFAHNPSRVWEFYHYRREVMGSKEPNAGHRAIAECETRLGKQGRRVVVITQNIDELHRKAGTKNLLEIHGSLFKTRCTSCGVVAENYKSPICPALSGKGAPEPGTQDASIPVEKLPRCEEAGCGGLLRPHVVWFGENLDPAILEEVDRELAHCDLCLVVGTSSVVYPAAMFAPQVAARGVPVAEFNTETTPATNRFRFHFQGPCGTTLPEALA
In short: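 E. coli-expressed human Sirtuins with 0.5 mM NAD+ and 0.1 mM Fluor-de-Lys peptide: FdL-2 (QPK(acetyl-K)) for Sirt3, FdL-1 (RHK(acetyl-K)) for Sirt5. Compounds at 100 μM final; 30 min at 37 °C, then trypsin developer for 45 min at room temperature.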

Q: For `CC12Cc3cnc(-c4ccccc4)nc3CC1CCC1C2CCC2(C)C1CCC2(C)O` (stereo not drawn) [CSC13, 1,11a,13a-trimethyl-8-phenyl-2,3,3a,3b,4,5,5a,6,11,11a,11b,12,13,13a-tetradecahydro-1H-cyclopenta[5,6]naphtho[1,2-g]quinazolin-1-ol], which “effect on Sirt2-dependent α-tubulin Lys40 deacetylation” value [1] is on record?
A: the deacetylation effect was decreased

Q: And the cytotoxicity (HEK cells)?
A: smaller effect

Q: What about the “Effect on the activity of Sirt5” value (Sirt5) of the same compound?
A: --- (key: inhibition: significant inhibitory effects (>25% loss of activity); ---: no such effect)
